In ChEMBL document CHEMBL1157904, “Discovery of pyrazolthiazoles as novel and potent inhibitors of bacterial gyrase” (Bioorg Med Chem Lett, 2010):
In brackets after ≈: the same amount, converted by molar mass. Activity calls are given as the source filed them. No cut-off for these calls is given here.

Columns and labels:
[1] = Inhibition of ATPase activity of Escherichia coli DNA gyrase B
[2] = test system: Escherichia coli; test: Antibacterial activity against tol C pump knockout Escherichia coli CAG12184; format: functional
[3] = test system: Escherichia coli; test: Antibacterial activity against wild type Escherichia coli; format: functional
[4] = test system: Streptococcus pneumoniae; test: Antibacterial activity against wild type Streptococcus pneumoniae; format: functional
[5] = test system: Staphylococcus aureus; test: Antibacterial activity against wild type Staphylococcus aureus; format: functional
[6] = Selectivity ratio of Ki for Escherichia coli DNA gyraseB to Ki for Staphylococcus aureus DNA gyraseB
[7] = (§1) Inhibition of ATPase activity of Staphylococcus aureus DNA gyrase B
[8] = test system: Staphylococcus aureus; test: Antibacterial activity against Staphylococcus aureus ATCC 29213; format: functional
[9] = test system: Streptococcus pneumoniae; test: Antibacterial activity against Streptococcus pneumoniae ATCC 10015; format: functional
[10] = test system: Staphylococcus aureus; test: as §1

SMILES | MIC [2] [µg/mL] | Ki [1] [nM] | other results
CCNC(=O)c1cc(-c2sc(-c3cccnc3)nc2[C@@H]2CCCN2)n[nH]1 | 32 (≈ 86.8 µM) | 82 | 
CCOC(=O)c1cc(-c2sc(-c3cccnc3)nc2CO)n[nH]1 |  | 670 | MIC [3]: > 64 µg/mL; MIC [4]: > 64 µg/mL; MIC [5]: > 64 µg/mL
CCOC(=O)c1cc(-c2sc(-c3cccnc3)nc2-c2ccccc2)n[nH]1 |  | 70 | 
C#CCOC(=O)NCc1cc(-c2sc(-c3cccnc3)nc2N2CCCCC2)[nH]n1 | 1 (≈ 2.37 µM) | 11 | Activity [3]: inactive; Ratio Ki [6]: 10; Ki [7]: 240 nM
CCOC(=O)c1cc(-c2sc(-c3ccccc3)nc2C)n[nH]1 |  | 1700 | 
CCNC(=O)c1cc(-c2sc(-c3cccnc3)nc2N2CCCCC2)n[nH]1 | 32 (≈ 83.7 µM) | 90 | 
CCc1cc(-c2sc(-c3cccs3)nc2C)n[nH]1 |  | 4800 | 
CSc1cc(-c2sc(-c3ccccc3)nc2C)n[nH]1 |  | 3500 | 
CC#CCOC(=O)NCc1cc(-c2sc(-c3cccnc3)nc2C2CCCCC2)n[nH]1 | > 64 | < 4 | Activity [3]: inactive; Ki [7]: 69 nM
CCCc1nc(-c2ccccc2)sc1-c1cc(C(=O)OCC)[nH]n1 |  | 800 | 
CCOC(=O)c1cc(-c2sc(-c3ccccc3)nc2N2CCCCC2)n[nH]1 |  | 210 | MIC [3]: > 64 µg/mL; MIC [4]: > 64 µg/mL; MIC [5]: > 64 µg/mL
CCNC(=O)c1cc(-c2sc(-c3cccnc3)nc2[C@@H]2CCCCN2)n[nH]1 | 48 (≈ 125 µM) | 40 | MIC [8]: 32 µg/mL (≈ 83.7 µM); MIC [9]: 1.5 µg/mL (≈ 3.92 µM); inhibition [10]: Active
CSc1cc(-c2sc(-c3cccs3)nc2C)[nH]n1 |  | 2900 | 
CCOC(=O)c1cc(-c2sc(-c3ccccc3)nc2-c2ccccc2)n[nH]1 |  | 140 | 
CCOC(=O)c1cc(-c2sc(-c3cccs3)nc2C)n[nH]1 |  | 2600 | 
CCOC(=O)c1cc(-c2sc(-c3cccnc3)nc2C2CC2)n[nH]1 |  | 240 | 
CC#CCOC(=O)NCc1cc(-c2sc(-c3cccnc3)nc2N2CCCCC2)n[nH]1 | 0.5 (≈ 1.15 µM) | < 4 | Activity [3]: inactive; Ki [7]: 140 nM
CCOC(=O)c1cc(-c2sc(-c3cccnc3)nc2COC)n[nH]1 |  | 280 | MIC [3]: > 64 µg/mL; MIC [4]: > 64 µg/mL; MIC [5]: > 64 µg/mL
CCOC(=O)c1cc(-c2sc(-c3ccccc3)nc2N2CCOCC2)n[nH]1 |  | 630 | MIC [3]: > 64 µg/mL; MIC [4]: > 64 µg/mL; MIC [5]: > 64 µg/mL
CCOC(=O)c1cc(-c2sc(-c3cccnc3)nc2C)n[nH]1 |  | 330 | 
CCOC(=O)c1cc(-c2sc(-c3cccnc3)nc2C2CCCCC2)n[nH]1 |  | 120 | 
CCOC(=O)c1cc(-c2sc(-c3cccnc3)nc2N2CCC(C)CC2)n[nH]1 |  | 1050 | MIC [3]: > 64 µg/mL; MIC [4]: > 64 µg/mL; MIC [5]: > 64 µg/mL

Further lines, with some results ahead:

MIC [2] [µg/mL] | SMILES | Ki [1] [nM] | other results
8 (≈ 19.5 µM) | CCNC(=O)c1cc(-c2sc(-c3cccnc3)nc2-c2ccc(Cl)cc2)n[nH]1 | 47 | MIC [8]: 8 µg/mL (≈ 19.5 µM); MIC [9]: 4 µg/mL (≈ 9.76 µM)
> 64 | COC(=O)NCc1cc(-c2sc(-c3ccccc3)nc2N2CCC(O)CC2)[nH]n1 | 1080 | Activity [3]: inactive
> 64 | CCNC(=O)c1cc(-c2sc(-c3cccnc3)nc2[C@H]2CCCCN2)n[nH]1 | 3400 | MIC [8]: > 64 µg/mL; MIC [9]: > 64 µg/mL; inhibition [10]: Active
4 (≈ 10.7 µM) | CCNC(=O)c1cc(-c2sc(-c3cccnc3)nc2-c2ccccc2)n[nH]1 | 45 | MIC [8]: 8 µg/mL (≈ 21.3 µM); MIC [9]: 2 µg/mL (≈ 5.33 µM); inhibition [10]: Active
16 (≈ 41.9 µM) | CCNC(=O)c1cc(-c2sc(-c3cccnc3)nc2C2CCCCC2)n[nH]1 | 62 | 
8 (≈ 20.1 µM) | CC#CCOC(=O)NCc1cc(-c2sc(-c3cccnc3)nc2COC)n[nH]1 | 14 | Activity [3]: inactive; Ki [7]: 1100 nM
> 64 | CCNC(=O)c1cc(-c2sc(-c3cccnc3)nc2C)n[nH]1 | 350 | MIC [8]: > 64 µg/mL; MIC [9]: > 64 µg/mL
> 64 | COC(=O)NCc1cc(-c2sc(-c3cccnc3)nc2N2CCCCC2)n[nH]1 | 56 | Activity [3]: inactive; Ki [7]: 300 nM
